# Read-outs that look alike come from different tables or passages of the source.
# What was measured:
# [1] = Example 7 composition, initial 5.22%
# [2] = Storage stability of composition containing 5.18% of benzoyl peroxide and 0.099% of tazarotene (Example 18); format: physicochemical; conditions: Example 18 composition, initial 5.18%
# Source text: (§1) The results are as follows:
# [3] = Example 6 composition, initial 5.54%
# [4] = Storage stability of composition containing 2.02% of benzoyl peroxide, […] of tazarotene, and […] of clindamycin (Example 9); format: physicochemical; conditions: Example 9 composition, initial 2.02%
# [5] = Storage stability of composition containing 2.02% of benzoyl peroxide and 0.099% of tazarotene (Example 17); format: physicochemical; conditions: Example 17 composition, initial 2.02%
# Source text: as §1
# [6] = Storage stability of composition containing 2.15% of benzoyl peroxide, […] of tazarotene, and […] of clindamycin (Example 8); format: physicochemical; conditions: Example 8 composition, initial 2.15%, 6 months
# [7] = Example 12 composition, initial […]
# [8] = Example 13 composition, initial […]
# [9] = Example 11 composition, initial […]
# [10] = Example 10 composition, initial 1.54%
compound,measurement,setting,value
O=C(OOC(=O)c1ccccc1)c1ccccc1 [Benzoyl Peroxide],Benzoyl Peroxide (BPO) (as % w/w),"[1]; 2 weeks, 6° C.",5.22 % w/w
same,Benzoyl Peroxide (BPO) (as % w/w),"[1]; 2 weeks, 25° C.",5.24 % w/w
same,Benzoyl Peroxide (BPO) (as % w/w),"[1]; 2 weeks, 30° C.",5.23 % w/w
same,Benzoyl Peroxide (BPO) (as % w/w),"[1]; 2 weeks, 40° C.",5.12 % w/w
same,Benzoyl Peroxide (BPO) (as % w/w),"[1]; 6 months, 6° C.",5.16 % w/w
same,Benzoyl Peroxide (BPO) (as % w/w),"[1]; 6 months, 25° C.",4.80 % w/w
same,Benzoyl Peroxide (BPO) (as % w/w),"[1]; 6 months, 30° C.",4.91 % w/w
same,Benzoyl Peroxide (BPO) (as % w/w),"[1]; 6 months, 40° C.",4.59 % w/w
same,Benzoyl peroxide (as % w/w),"[2]; 6 months, 6° C.",5.2 % w/w
same,Benzoyl peroxide (as % w/w),"[2]; 6 months, 25° C.",5.14 % w/w
same,Benzoyl peroxide (as % w/w),"[2]; 6 months, 30° C.",5.02 % w/w
same,Benzoyl peroxide (as % w/w),"[2]; 6 months, 40° C.",4.81 % w/w
same,Benzoyl peroxide (as % w/w),"[2]; 90 days, 6° C.",5.25 % w/w
same,Benzoyl peroxide (as % w/w),"[2]; 90 days, 25° C.",5.23 % w/w
same,Benzoyl peroxide (as % w/w),"[2]; 90 days, 30° C.",5.30 % w/w
same,Benzoyl peroxide (as % w/w),"[2]; 90 days, 40° C.",5.16 % w/w
same,Benzoyl Peroxide (BPO) (as % w/w),"[3]; 2 weeks, 25° C.",5.43 % w/w
same,Benzoyl Peroxide (BPO) (as % w/w),"[3]; 2 weeks, 30° C.",5.35 % w/w
same,Benzoyl Peroxide (BPO) (as % w/w),"[3]; 2 weeks, 40° C.",5.34 % w/w
same,Benzoyl Peroxide (BPO) (as % w/w),"[3]; 90 days, 6° C.",5.48 % w/w
same,Benzoyl Peroxide (BPO) (as % w/w),"[3]; 90 days, 25° C.",5.34 % w/w
same,Benzoyl Peroxide (BPO) (as % w/w),"[3]; 90 days, 30° C.",5.33 % w/w
same,Benzoyl Peroxide (BPO) (as % w/w),"[3]; 90 days, 40° C.",5.19 % w/w
same,Benzoyl Peroxide (BPO) (as % w/w),"[4]; 6 months, 6° C.",2.10 % w/w
same,Benzoyl Peroxide (BPO) (as % w/w),"[4]; 6 months, 25° C.",2.00 % w/w
same,Benzoyl Peroxide (BPO) (as % w/w),"[4]; 6 months, 30° C.",1.94 % w/w
same,Benzoyl Peroxide (BPO) (as % w/w),"[4]; 6 months, 40° C.",1.45 % w/w
same,Benzoyl Peroxide (BPO) (as % w/w),"[4]; 90 days, 6° C.",2.02 % w/w
same,Benzoyl Peroxide (BPO) (as % w/w),"[4]; 90 days, 25° C.",1.97 % w/w
same,Benzoyl Peroxide (BPO) (as % w/w),"[4]; 90 days, 30° C.",1.97 % w/w
same,Benzoyl Peroxide (BPO) (as % w/w),"[4]; 90 days, 40° C.",1.73 % w/w
same,Benzoyl peroxide (as % w/w),"[5]; 6 months, 6° C.",2.07 % w/w
same,Benzoyl peroxide (as % w/w),"[5]; 6 months, 25° C.",2.03 % w/w
same,Benzoyl peroxide (as % w/w),"[5]; 6 months, 30° C.",2.05 % w/w
same,Benzoyl peroxide (as % w/w),"[5]; 6 months, 40° C.",1.94 % w/w
same,Benzoyl peroxide (as % w/w),"[5]; 90 days, 6° C.",2.09 % w/w
same,Benzoyl peroxide (as % w/w),"[5]; 90 days, 25° C.",2.06 % w/w
same,Benzoyl peroxide (as % w/w),"[5]; 90 days, 30° C.",2.07 % w/w
same,Benzoyl peroxide (as % w/w),"[5]; 90 days, 40° C.",2.01 % w/w
same,Benzoyl Peroxide (BPO) (as % w/w),[6]; 6° C.,2.13 % w/w
same,Benzoyl Peroxide (BPO) (as % w/w),[6]; 25° C.,2.00 % w/w
same,Benzoyl Peroxide (BPO) (as % w/w),[6]; 30° C.,2.05 % w/w
same,Benzoyl Peroxide (BPO) (as % w/w),[6]; 40° C.,1.69 % w/w
same,Benzoyl Peroxide (BPO) (as % w/w),"[7]; 2 weeks, 6° C.",0.99 % w/w
same,Benzoyl Peroxide (BPO) (as % w/w),"[7]; 2 weeks, 25° C.",0.97 % w/w
same,Benzoyl Peroxide (BPO) (as % w/w),"[7]; 2 weeks, 30° C.",0.97 % w/w
same,Benzoyl Peroxide (BPO) (as % w/w),"[7]; 2 weeks, 40° C.",0.94 % w/w
same,Benzoyl Peroxide (BPO) (as % w/w),"[7]; 6 months, 6° C.",1.01 % w/w
same,Benzoyl Peroxide (BPO) (as % w/w),"[7]; 6 months, 25° C.",0.95 % w/w
same,Benzoyl Peroxide (BPO) (as % w/w),"[7]; 6 months, 30° C.",0.92 % w/w
same,Benzoyl Peroxide (BPO) (as % w/w),"[7]; 6 months, 40° C.",0.40 % w/w
same,Benzoyl Peroxide (BPO) (as % w/w),"[7]; 90 days, 6° C.",1.00 % w/w
same,Benzoyl Peroxide (BPO) (as % w/w),"[7]; 90 days, 25° C.",0.94 % w/w
same,Benzoyl Peroxide (BPO) (as % w/w),"[7]; 90 days, 30° C.",0.93 % w/w
same,Benzoyl Peroxide (BPO) (as % w/w),"[7]; 90 days, 40° C.",0.73 % w/w
same,Benzoyl Peroxide (BPO) (as % w/w),"[8]; 2 weeks, 6° C.",0.99 % w/w
same,Benzoyl Peroxide (BPO) (as % w/w),"[8]; 2 weeks, 25° C.",0.98 % w/w
same,Benzoyl Peroxide (BPO) (as % w/w),"[8]; 2 weeks, 30° C.",0.98 % w/w
same,Benzoyl Peroxide (BPO) (as % w/w),"[8]; 2 weeks, 40° C.",0.96 % w/w
same,Benzoyl Peroxide (BPO) (as % w/w),"[8]; 6 months, 6° C.",1.02 % w/w
same,Benzoyl Peroxide (BPO) (as % w/w),"[8]; 6 months, 25° C.",0.96 % w/w
same,Benzoyl Peroxide (BPO) (as % w/w),"[8]; 6 months, 30° C.",0.91 % w/w
same,Benzoyl Peroxide (BPO) (as % w/w),"[8]; 6 months, 40° C.",0.40 % w/w
same,Benzoyl Peroxide (BPO) (as % w/w),"[8]; 90 days, 6° C.",1.02 % w/w
same,Benzoyl Peroxide (BPO) (as % w/w),"[8]; 90 days, 25° C.",0.99 % w/w
same,Benzoyl Peroxide (BPO) (as % w/w),"[8]; 90 days, 30° C.",0.95 % w/w
same,Benzoyl Peroxide (BPO) (as % w/w),"[8]; 90 days, 40° C.",0.73 % w/w
same,Benzoyl Peroxide (BPO) (as % w/w),"[9]; 2 weeks, 6° C.",0.99 % w/w
same,Benzoyl Peroxide (BPO) (as % w/w),"[9]; 2 weeks, 25° C.",0.95 % w/w
same,Benzoyl Peroxide (BPO) (as % w/w),"[9]; 2 weeks, 40° C.",0.94 % w/w
same,Benzoyl Peroxide (BPO) (as % w/w),"[9]; 6 months, 6° C.",0.99 % w/w
same,Benzoyl Peroxide (BPO) (as % w/w),"[9]; 6 months, 25° C.",0.91 % w/w
same,Benzoyl Peroxide (BPO) (as % w/w),"[9]; 6 months, 40° C.",0.35 % w/w
same,Benzoyl Peroxide (BPO) (as % w/w),"[9]; 30 days, 6° C.",0.98 % w/w
same,Benzoyl Peroxide (BPO) (as % w/w),"[9]; 30 days, 25° C.",0.95 % w/w
same,Benzoyl Peroxide (BPO) (as % w/w),"[9]; 30 days, 40° C.",0.90 % w/w
same,Benzoyl Peroxide (BPO) (as % w/w),"[9]; 90 days, 6° C.",0.99 % w/w
same,Benzoyl Peroxide (BPO) (as % w/w),"[9]; 90 days, 25° C.",0.93 % w/w
same,Benzoyl Peroxide (BPO) (as % w/w),"[9]; 90 days, 40° C.",0.69 % w/w
same,Benzoyl Peroxide (BPO) (as % w/w),"[10]; 6 months, 6° C.",1.50 % w/w
same,Benzoyl Peroxide (BPO) (as % w/w),"[10]; 6 months, 25° C.",1.40 % w/w
same,Benzoyl Peroxide (BPO) (as % w/w),"[10]; 6 months, 30° C.",1.40 % w/w
same,Benzoyl Peroxide (BPO) (as % w/w),"[10]; 6 months, 40° C.",1.03 % w/w
same,Benzoyl Peroxide (BPO) (as % w/w),"[10]; 90 days, 6° C.",1.50 % w/w
same,Benzoyl Peroxide (BPO) (as % w/w),"[10]; 90 days, 25° C.",1.44 % w/w
same,Benzoyl Peroxide (BPO) (as % w/w),"[10]; 90 days, 30° C.",1.42 % w/w
same,Benzoyl Peroxide (BPO) (as % w/w),"[10]; 90 days, 40° C.",1.28 % w/w

# From patent US20070003585A1, “Topical skin treating compositions” (STIEFEL LABORATORIES, INC., priority 2005, published 2007)
